Series [1] can be described thus: Artificial membrane permeability assay (PAMPA). Background: In PAMPA a lipid-coated filter parts donor from acceptor wells.
Experimental: In order to test the ability SDC-TRAP molecules of the invention to enter cells, an artificial membrane permeability assay (“PAMPA”) was used. […] LC/MS was used in conjunction with PAMPA assays to determine the ability of the SDC-TRAP molecules of the invention to permeate cells.
Pre-coated PAMPA plates were warmed to room temperature for at least 30 minutes prior to adding assay components.
Stock solutions were prepared with the SDC-TRAP molecules to be tested. In order to make a working solution, either 50 μL of 100 μM Stock in DMSO+950 μL of PBS or 50 μL of 200 stock was added to 96 deep well plate, resulting in a 5 μM final concentration or a 10 μM final concentration, respectively. […] 200 μL of PBS was added into the corresponding wells of an acceptor PAMPA plates.
The acceptor plate was lowered onto the donor plate and allowed to incubate for five hours. After five hours, a 50 μL aliquot was removed from each well of each plate and added into a new 96 deep-well plate.
100 μL of methanol containing an internal standard was added to each aliquot and analyzed by LC/MS. The internal standard was 150 ng/ml SDC-TRAP-0002.
In order to calculate the permeability for each SDC-TRAP molecule and the control molecules, the following formula was used:
Permeability (in Unit of Cm/s):
[formula] • C0=initial compound concentration in donor well (mM) • CD (t)=compound concentration in donor well at time t. (mM) • CA (t)=compound concentration in acceptor well at time t. (mM) • VD=donor well volume=0.3 mL • VA=acceptor well volume=0.2 mL • A=filter area=0.3 cm^2 • t=incubation time=18000 s (5 h)
For the data presented in the table below, peak area was used in place of concentration in the formula above.
Series [2] in a line: Tissue distribution of SDC-TRAP and degradation products in tumor-bearing mice (plasma, tumor, heart). In kind it is in vivo, Female SCID Mouse (H1975).
Experimental: A 150 ng/mL solution of SDC-TRAP-0002 in methanol was prepared using an internal spiking solution (500 μg/mL SDC-TRAP-0002 in DMSO). Using the 10 mM stock solutions of the SDC-TRAP molecule and its Hsp90i binding moiety and effector moiety in DMSO, spiking solutions were prepared at 0.025, 0.05, 0.1, 0.5, 1, 5, 10, 50, 100, 250, and 500 μM in DMSO. 5 μL of each spiking solution was added to a 96-deep well plate.
Quality control standards were prepared from 5 μL of 0.1, 1, and 10 μM calibration standard spiking solution added in triplicate into 96-deep well plate and adding 50 μL of matrix (plasma or homogenized tumor).
To prepare test samples, test plasma was diluted as needed using blank plasma. Tumor samples were pulverized in liquid nitrogen, weighed, and homogenized in PBS at 5× volume to sample weight. 50 μL of unknown plasma or homogenized tumor sample was mixed with 5 μL of DMSO. The samples were extracted by precipitating calibration standards, QC standards, and unknown samples with 200 μL of internal standard solution. The samples were mixed by vortex at room temperature for approximately 1.5 minutes, then centrifuge at 2-8° C. 150 μL of supernatant was collected and 25 μL of water added. Samples were mixed and analyzed by LC-MS/MS.
Samples of plasma, heart and tumor were excised from a euthanized mouse, homogenized in PBS at 5 times tissue weight and diluted in 5 μL DMSO/50 μL sample. Prior to analysis, 55 μL samples and calibration standards were precipitated in 200 μL methanol in 96-well plates. Samples were mixed on a vortex mixer for 1.5 minutes at 1500 rpm at room temperature, then centrifuged at 4400 rpm for 10 minutes at 8° C. 150 μL of each supernatant was transferred to a well of a new 96-well plate, and 25 μL of water was added and mixed with the sample. […] For the analysis of samples from female SCID mice, a gradient of solvent A (water/0.1% formic acid) and B (acetonitrile/0.1% formic acid) was used as in Table A below.
Setting [3] is: Permeability (10^−6 cm/s), 5 h incubation, peak area used in place of concentration, first table.
The mark [4] stands for this setting: Permeability (cm/s), 5 h incubation, peak area used in place of concentration, first table.
Where [5] appears, read: tissue distribution of SDC-TRAP-0056, 6 h.
Where [6] appears, read: tissue distribution of SDC-TRAP-0056, 12 h.
[7] abbreviates: tissue distribution of SDC-TRAP-0056, 24 h.
Where [8] appears, read: female, SCID, mouse, in vivo, read-out: Plasma Conc.
Where [9] appears, read: female, SCID, mouse, in vivo, read-out: Tumor/Plasma Ratio.

Where two headings read alike, the source gives them in different places.

A word on the Papp: it is a coefficient for how fast a substance crosses the barrier. A higher Papp goes with ready permeation.

Turning to `CCNC(=O)c1nnc(-c2cc(C(C)C)c(O)cc2O)n1-c1ccc(CN2CCC(C(=O)N3CCN(c4cc(C)c(OC(=O)Nc5cccc6c5CN(C5CCC(=O)NC5=O)C6=O)c(C)c4)CC3)CC2)cc1` (stereo not shown) [SDC-TRAP-0195, 4-(4-(1-(4-(3-(2,4-dihydroxy-5-isopropylphenyl)-5-(ethylcarbamoyl)-4H-1,2,4-triazol-4-yl)benzyl)piperidine-4-carbonyl)piperazin-1-yl)-2,6-dimethylphenyl (2-(2,6-dioxopiperidin-3-yl)-1-oxoisoindolin-4-yl)carbamate], the “Mass Retention (%)” value in series [1] (5 h incubation, first table) turned out to be 27.1%.

In the case of `CC(C)c1cc(-c2nnc(O)n2-c2ccc3c(ccn3CCN(C)C(=O)CCCC(=O)Nc3cccc4c3CN(C3CCC(=O)NC3=O)C4=O)c2)c(O)cc1O` (stereo not shown) [SDC-TRAP-0018, N1-(2-(5-(3-(2,4-dihydroxy-5-isopropylphenyl)-5-hydroxy-4H-1,2,4-triazol-4-yl)-1H-indol-1-yl)ethyl)-N5-(2-(2,6-dioxopiperidin-3-yl)-1-oxoisoindolin-4-yl)-N1-methylglutaramide], the “Mass Retention (%)” value in series [1] (5 h incubation, first table) turned out to be 14.7%. Besides, the Papp at 5 h in series [1] (setting [3]) and in series [1] (setting [4]) was 0.0268 ×10⁻⁶ cm/s each time.

For `CC(C)c1cc(-c2nnc(O)n2-c2ccc(CN3CCN(C(=O)CCn4cc(F)c(=O)[nH]c4=O)CC3)cc2)c(O)cc1O` [SDC-TRAP-0049, 1-(3-(4-(4-(3-(2,4-dihydroxy-5-isopropylphenyl)-5-hydroxy-4H-1,2,4-triazol-4-yl)benzyl)piperazin-1-yl)-3-oxopropyl)-5-fluoropyrimidine-2,4 (1H,3H)-dione], the “Mass Retention (%)” value in series [1] (5 h incubation, first table) came out at 14.1%. For the same compound, the apparent permeability coefficient (Papp) at 5 h in series [1] (setting [3]) and in series [1] (setting [4]) was 0.0124 ×10⁻⁶ cm/s in each case.

In the case of `CCc1c2c(nc3ccc(O)cc13)-c1cc3c(c(=O)n1C2)COC(=O)C3(CC)OC(=O)CN1CCN(c2ccc(-n3c(O)nnc3-c3cc(C(C)C)c(O)cc3O)cc2)CC1` (stereo not shown) [SDC-TRAP-0056, 4,11-diethyl-9-hydroxy-3,14-dioxo-3,4,12,14-tetrahydro-1H-pyrano[3′,4′:6,7]indolizino[1,2-b]quinolin-4-yl 2-(4-(4-(3-(2,4-dihydroxy-5-isopropylphenyl)-5-hydroxy-4H-1,2,4-triazol-4-yl)phenyl)piperazin-1-yl)acetate], the Kp in series [2] (female, SCID, mouse, in vivo, tissue distribution of SDC-TRAP-0056, 6 h, read-out: Tumor/Plasma Ratio) is 0.844; in series [2] (female, SCID, mouse, in vivo, tissue distribution of SDC-TRAP-0056, 12 h, read-out: Tumor/Plasma Ratio) it was 40.3; in series [2] (female, SCID, mouse, in vivo, tissue distribution of SDC-TRAP-0056, 24 h, read-out: Tumor/Plasma Ratio), 40.3; in series [2] (female, SCID, mouse, in vivo, tissue distribution of SDC-TRAP-0056, […], read-out: Tumor/Plasma Ratio), 0.0193. Also, the “Plasma Conc.” value came out at 5880 nM in series [2] (setting [5]), 54.2 nM in series [2] (setting [6]) and 54.2 nM in series [2] (setting [7]). Also, the “Tumor Conc.” value is 4.97 nmol/g of tissue in series [2] (setting [5]); 2.19 nmol/g of tissue in series [2] (setting [6]); 2.19 nmol/g of tissue in series [2] (setting [7]); 0.188 nmol/g of tissue in series [2] (tissue distribution of SDC-TRAP-0056, 48 h).

Regarding `CCNC(=O)c1nnc(-c2cc(C(C)C)c(O)cc2O)n1-c1ccc2c(ccn2CCC2CCN(C(=O)O[C@]3(CC)C(=O)OCc4c3cc3n(c4=O)Cc4c-3nc3ccc(O)cc3c4CC)CC2)c1` [SDC-TRAP-0208, (S)-4,11-diethyl-9-hydroxy-3,14-dioxo-3,4,12,14-tetrahydro-1H-pyrano[3′,4′:6,7]indolizino[1,2-b]quinolin-4-yl 4-(2-(5-(3-(2,4-dihydroxy-5-isopropylphenyl)-5-(ethylcarbamoyl)-4H-1,2,4-triazol-4-yl)-1H-indol-1-yl)ethyl)piperidine-1-carboxylate], the “Mass Retention (%)” value in series [1] (same protocol, second table) came out at 25.0%.

In the case of `COc1cccc2c1C(=O)c1c(O)c3c(c(O)c1C2=O)C[C@@](O)(C(=O)CO)C[C@@H]3O[C@H]1C[C@H](N)[C@H](O)[C@H](C)O1` [Doxorubicin, doxorubicin, reference compound], in series [1] (5 h incubation, first table), the “Mass Retention (%)” value was 21.0%. The Papp at 5 h in series [1] (setting [3]) and in series [1] (setting [4]) was 0.0033 ×10⁻⁶ cm/s throughout.

Take `Cn1c(=O)c2c(ncn2C)n(C)c1=O` [Caffeine]: the “Mass Retention (%)” value is 20.8% in series [1] (5 h incubation, first table) and −0.11% in series [1] (same protocol, second table). Besides, the Papp at 5 h in series [1] (setting [3]) came to 11.7 ×10⁻⁶ cm/s; in series [1] (Permeability (10^−6 cm/s), same protocol, second table), 14.3 ×10⁻⁶ cm/s; in series [1] (setting [4]) it was 11.7 ×10⁻⁶ cm/s; in series [1] (Permeability (cm/s), same protocol, second table), 14.3 ×10⁻⁶ cm/s.

For `CCNC(=O)c1nnc(-c2cc(C(C)C)c(O)cc2O)n1-c1ccc(CN2CCC(C(=O)N[C@@H](CC(C)C)C(=O)Nc3cccc4c3CN(C3CCC(=O)NC3=O)C4=O)CC2)cc1` (stereo partly drawn) [SDC-TRAP-0193, 1-(4-(3-(2,4-dihydroxy-5-isopropylphenyl)-5-(ethylcarbamoyl)-4H-1,2,4-triazol-4-yl)benzyl)-N-((2S)-1-((2-(2,6-dioxopiperidin-3-yl)-1-oxoisoindolin-4-yl)amino)-4-methyl-1-oxopentan-2-yl)piperidine-4-carboxamide], the “Mass Retention (%)” value in series [1] (5 h incubation, first table) is 10.2%. Further, the Papp at 5 h in series [1] (setting [3]) and in series [1] (setting [4]) was 0.00859 ×10⁻⁶ cm/s throughout.

`COc1ccc(-c2cnoc2-c2cc(OC)c(OC)c(OC)c2)cc1OC(=O)N1CCN(Cc2ccc(-n3c(O)nnc3-c3cc(C(C)C)c(O)cc3O)cc2)CC1` [SDC-TRAP-0098, 2-Methoxy-5-(5-(3,4,5-trimethoxyphenyl)isoxazol-4-yl)phenyl-4-(4-(3-(2,4-dihydroxy-5-isopropylphenyl)-5-hydroxy-4H-1,2,4-triazol-4-yl)benzyl) piperazine-1-carboxylate]: the “Tumor Conc.” value in series [2] (tissue distribution of SDC-TRAP-0098, 1 h) was 0.250 nmol/g of tissue; in series [2] (tissue distribution of SDC-TRAP-0098, 6 h), 0.0122 nmol/g of tissue; in series [2] (tissue distribution of SDC-TRAP-0098, 24 h), “BQL”; in series [2] (tissue distribution of SDC-TRAP-0098, 48 h), “BQL”.

With `CCNC(=O)c1nnc(-c2cc(C(C)C)c(O)cc2O)n1-c1ccc(OC2CCN(c3cnc(C(=O)N[C@H]4C[C@H](O[C@H]5C[C@](O)(C(=O)CO)Cc6c(O)c7c(c(O)c65)C(=O)c5c(OC)cccc5C7=O)O[C@@H](C)[C@H]4O)cn3)CC2)cc1` [SDC-TRAP-0200, 5-(4-(4-(3-(2,4-dihydroxy-5-isopropylphenyl)-5-(ethylcarbamoyl)-4H-1,2,4-triazol-4-yl)phenoxy)piperidin-1-yl)-N-((2S,3S,4S,6R)-3-hydroxy-2-methyl-6-(((1S,3S)-3,5,12-trihydroxy-3-(2-hydroxyacetyl)-10-methoxy-6,11-dioxo-1,2,3,4,6,11-hexahydrotetracen-1-yl)oxy)tetrahydro-2H-pyran-4-yl)pyrazine-2-carboxamide], the “Mass Retention (%)” value in series [1] (same protocol, second table) was 10.6%.

Consider `CC(=O)O[C@@]12CO[C@@H]1C[C@H](O)[C@@]1(C)C(=O)[C@H](O)C3=C(C)[C@@H](OC(=O)[C@H](O)[C@@H](NC(=O)OC(C)(C)C)c4ccccc4)C[C@@](O)([C@@H](OC(=O)c4ccccc4)[C@H]21)C3(C)C` [Docetaxel, docetaxel, reference compound], for which, in series [1] (5 h incubation, first table), the “Mass Retention (%)” value is 17.6%. Moreover, the Papp at 5 h in series [1] (setting [3]) and in series [1] (setting [4]) was 0.05 ×10⁻⁶ cm/s each time.

With `CC(C)c1cc(-c2nnc(C(=O)NCCCCCS(N)(=O)=O)n2-c2ccc(CN3CCOCC3)cc2)c(O)cc1O` [SDC-TRAP-0232, 5-(2,4-dihydroxy-5-isopropylphenyl)-4-(4-(morpholinomethyl)phenyl)-N-(5-sulfamoylpentyl)-4H-1,2,4-triazole-3-carboxamide], the “Mass Retention (%)” value in series [1] (5 h incubation, first table) was 21.0%. The Papp at 5 h in series [1] (setting [3]) and in series [1] (setting [4]) was 0.00689 ×10⁻⁶ cm/s in each case.

As to `CCNC(=O)c1nnc(-c2cc(C(C)C)c(O)cc2O)n1-c1ccc(C(=O)N2CCN(c3cc(C)c(OC(=O)Nc4cccc5c4CN(C4CCC(=O)NC4=O)C5=O)c(C)c3)CC2)cc1` (stereo not shown) [SDC-TRAP-0178, 4-(4-(4-(3-(2,4-dihydroxy-5-isopropylphenyl)-5-(ethylcarbamoyl)-4H-1,2,4-triazol-4-yl)benzoyl)piperazin-1-yl)-2,6-dimethylphenyl (2-(2,6-dioxopiperidin-3-yl)-1-oxoisoindolin-4-yl)carbamate], in series [2] (setting [8]), the concentration at 1 h was determined as 217000 nM, the concentration at 6 h is 4510 nM, the concentration at 24 h worked out at 28 nM and the concentration at 48 h was determined as 241 nM. Further, in series [2] (setting [9]), the Kp at 1 h was 1.59, the Kp at 6 h turned out to be 100, the Kp at 24 h came out at 100 and the Kp at […] is 0.0179.

Take `CCNC(=O)c1nnc(-c2cc(C(C)C)c(O)cc2O)n1-c1ccc2c(c1)CN(Cc1cc(OC)c(OC(=O)Nc3cccc4c3CN(C3CCC(=O)NC3=O)C4=O)c(OC)c1)C2` (stereo not shown) [SDC-TRAP-0196, 4-((5-(3-(2,4-dihydroxy-5-isopropylphenyl)-5-(ethylcarbamoyl)-4H-1,2,4-triazol-4-yl)isoindolin-2-yl)methyl)-2,6-dimethoxyphenyl (2-(2,6-dioxopiperidin-3-yl)-1-oxoisoindolin-4-yl)carbamate]: the “Mass Retention (%)” value in series [1] (5 h incubation, first table) was found to be 22.3%.

Consider `CC(C)c1cc(-c2nnc(O)n2-c2ccc(CN3CCN(C(=O)Oc4ccc(COC(=O)Nc5cccc6c5CN(C5CCC(=O)NC5=O)C6=O)cc4)CC3)c(F)c2)c(O)cc1O` (stereo not shown) [SDC-TRAP-0171, 4-((((2-(2,6-dioxopiperidin-3-yl)-1-oxoisoindolin-4-yl)carbamoyl)oxy)methyl)phenyl-4-(4-(3-(2,4-dihydroxy-5-isopropylphenyl)-5-hydroxy-4H-1,2,4-triazol-4-yl)-2-fluorobenzyl)piperazine-1-carboxylate], for which the Kp at 6 h in series [2] (setting [9]) worked out at 407.

For the origin of these results see patent US20200316090A1, “TARGETED THERAPEUTICS” (MADRIGAL PHARMACEUTICALS, INC., priority 2012, published 2020).
